Legend:
Type in all cases: in vivo
plants and/or seeds = experiment: Summary observations: CPPA treated with cation exchange resin, Fe alone and Fe added back; conditions: seed treatment
Method: The plant biological response was generally observed to be better when a stoichiometric amount of Fe was added back (relative to the amount of CPPA or its TOC value) rather than an excess amount. […] These observations support the premise that the combination of CPPA and Fe are synergistic in their interaction and biological effect on plants and/or seeds.

[1] = tested on: tomato plants (Lycopersicon es.); experiment: Experiment Fe-4: foliar CPPA, Fe (FeSO4) or CPPA and Fe on tomato plants; conditions: for Leaf # / Vigor / Plt. Ht. / Plt. Wt. / Root Wt. / Shoot Wt.: tomato, foliar
Description: Experiment Fe-4: The purpose of this experiment was to determine if the addition of low levels of iron to a CPPA sample containing lower than typical amounts of iron (e.g., Fe/TOC=0.135) would increase the biological response of plants. Nominal Fe/TOC ratios for CPPA range from 0.10 to 0.28 but the optimum ratio for “as-is” samples of CPPA, as determined in the previous experiments, is between 0.2 and 0.25. Thus, for this experiment, non-agrochemically effective amounts of iron were combined with CPPA samples. Tomato plants (Lycopersicon es.) were produced from seed and transplanted into 3 inch by 3 inch pots. There were 16 treatments plus an untreated check with 20 replicates per treatment arranged in a Randomized Complete Block design. Pots were treated with water (UTC), or CPPA only (3 different rates), Fe only (3 different rates), or CPPA and Fe at each of the rates. The CPPA rates corresponded to 260, 520, and 1040 mg organic carbon (TOC) per hectare and the Fe rates corresponded to 130, 260, and 520 mg Fe per hectare. All pots were treated by foliar application immediately after transplanting. Ten days after the application, ten of the plants were harvested and assessed for vigor, leaf number, plant height, plant weight, root weight, and shoot weight. […] Additional application rates of CPPA and Fe were evaluated with similar synergistic results observed for the combination of CPPA with amounts of iron. Twenty days after transplanting, the remaining ten plants in each treatment were assessed.

[2] = tested on: tomato plants (Lycopersicon es.); experiment: Experiment Salt-1: CPPA/NaCl composition, foliar application; conditions: NaCl 2600 mg/ha
Method: Experiment Salt-1: […] There were a total of 5 treatments plus an untreated check, each with 10 replicates per treatment arranged in a randomized block design. […] Each treatment comprised samples treated with CPPA alone, salt alone, or CPPA plus salt. Two rates of CPPA were used; the first was equivalent to 520 mg of TOC per hectare and a second equivalent to 1040 mg of TOC per hectare. Salt was applied at a rate equivalent to 2.6 g of salt per hectare. All treatments were diluted with water to provide a final spray volume equivalent to 208 lit per hectare, made with a spray bottle, with just enough spray solution to wet the leaf surface of each plant. Ten days after treatment the plants were assessed for vigor, leaf number, plant height, plant weight, root weight, shoot weight, and leaf conductance using a SPAD meter and are summarized in Table 8 and depicted in FIGS. 10-16.

[3] = 0 mg TOC/ha + 130 mg Fe/ha, 20 days after application
[4] = 0 mg TOC/ha + 520 mg Fe/ha, 10 days after application
[5] = 0 mg TOC/ha + 520 mg Fe/ha, 20 days after application
[6] = foliar at transplanting, 10 days after treatment

Structure (SMILES): O=S(=O)([O-])[O-].[Fe+2] [Fe, FeSO4]
- root development (plants and/or seeds): negative effect
- shoot development (plants and/or seeds): negative effect
- biological effect on plant, root and shoot weights versus UTC ([1]; Fe alone 520 mg Fe/ha, 20 days): apparent slightly negative biological effect
- Leaf # [1, 3]: 6.3 ab
- Vigor [1, 3]: 2.1 c
- Leaf # [1, 4]: 6.6 ab
- Plt. Ht. [1, 4]: 4.2 b
- Plt. Wt. [1, 4]: 4.9 b
- Root Wt. [1, 4]: 1.4 bc
- Shoot Wt. [1, 4]: 3.6 b
- Vigor [1, 4]: 3.8 b
- Leaf # [1, 5]: 5.1 b
- Plt. Ht. [1, 5]: 6.3 b
- Plt. Wt. [1, 5]: 4.5 b
- Root Wt. [1, 5]: 1.6 bc
- Shoot Wt. [1, 5]: 2.9 cd
- Vigor [1, 5]: 2.5 c

Structure (SMILES): [Cl-].[Na+] [NaCl]
- Leaf # [2, 6]: 5.3 e
- Plt. Ht. [2, 6]: 3.5 b
- Plt. Wt. [2, 6]: 2.7 c
- Root Wt. [2, 6]: 0.8 jc
- Shoot Wt. [2, 6]: 2.0 c
- Vigor [2, 6]: 2.4 b
- phytotoxicity of salt treatment alone ([2]; foliar, 10 days): significant amount of phytotoxicity
- SPAD ([2]; leaf conductance using a SPAD meter, foliar at transplanting, 10 days after treatment): 24.2 b
